We go through 23 molecules from patent publication US12319695B2, “Sulfonamide derivative with fused pyrimidine skeleton, having epidermal growth factor receptor mutation inhibitory effect” (HANMI PHARM. CO., LTD., priority 2018, dated 2025).

Each structure is given as a SMILES string. Entries after “also recorded” stand apart in the source; their conditions may differ. Read-outs that look alike come from different tables or passages of the source.

The subject of assay [1] is PC9 EGFR del19/T790M/C797S cells. The assay can be described thus: PC9 EGFR del19/T790M/C797S cell growth inhibition test (CellTiter-Glo, 72 hours). It counts as cell-based. The note with it: Homo sapiens, PC-9, PC9 cell line overexpressing EGFR del19/T790M/C797S. The procedure:
For cell growth conditions, an RPMI Medium 1640 (1×) containing 10% FBS and 1% penicillin/straptomycin (Gibco BRL) was used.
Specifically, the cell line stored in a liquid nitrogen tank was taken out, rapidly dissolved at 37° C., and thereafter centrifuged to remove the cryopreservation medium. The recovered cell pellets were well mixed in a culture medium, put into a culture flask, and passaged under conditions of 37° C. and 5% carbon dioxide to stabilize the cells to logarithmic cell growth phase. Thereafter, cells were taken from the flask, centrifuged to remove the culture medium, washed with Dulbecco's phosphate buffered saline (DPBS), and then centrifuged again to remove DPBS, and then diluted with a culture medium to have 1×10^5 cells/ml. The diluted cells were dispensed into a 96-well plate at 100 μl per well. The compounds prepared in the above examples were each dissolved in 99.5% dimethylsulfoxide (hereinafter, DMSO, cell culture grade) to a concentration of 10 mM. The DMSO solution containing each compound was diluted with a culture medium to a concentration of 30 μM, and then tenfold serial dilution was used to prepare a solution diluted upto 0.3 nM (in order to reach a final DMSO concentration of 1% or less).
The cells treated with the test solution were cultured under conditions of 37° C. and 5% carbon dioxide for 72 hours. After the 96-well plate in which the cells were cultured was acclimated to room temperature for 30 minutes, CellTiter-Glo® Luminescent Cell Assay Reagent (CTG, Promega) was dispensed at 50 μl per well. After stabilizing luminescence signals for 10 minutes, the luminescence intensity was measured with a microplate reader.
Based on the measured value, a […] value of each compound, which is the concentration at which cell growth is inhibited by 50%, was calculated with respect to 100% of the value obtained by subtracting the initial cell density value of a well not treated with a test material from the final cell density value thereof. The GI50 value of each compound was calculated using nonlinear regression of GraphPad Prism; log[inhibitor] vs. normalized response analysis.
A general note: In ATP-based viability assays light output follows the ATP content of the culture.

For assay [2], the system named is Ba/F3 EGFR del19/T790M/C797S cells. The assay can be described thus: Ba/F3 EGFR del19/T790M/C797S cell growth inhibition test (CellTiter-Glo, 72 hours).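 As to all read-outs here: compounds tested in tenfold steps from 10 µM down to 0.1 nM, with luminescence read on a microplate reader.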 It counts as cell-based. As to conditions: for GI50: read-out: Ba/F3 EGFR del19/T790M/C797S cells, GI50.
Protocol: Specifically, the cell line stored in a liquid nitrogen tank was taken out, rapidly dissolved at 37° C., and thereafter centrifuged to remove the cryopreservation medium. The recovered cell pellets were well mixed in a culture medium, put into a culture flask, and passaged under conditions of 37° C. and 5% carbon dioxide to stabilize the cells to the logarithmic growth phase. Thereafter, cells were taken from the flask, centrifuged to remove the culture medium, washed with Dulbecco's phosphate buffered saline (DPBS), and then centrifuged again to remove DPBS, and then diluted with a culture medium to have 1×10^5 cells/ml. The diluted cells were dispensed into a 96-well plate at 100 μl per well. […] The DMSO solution containing each compound was diluted with a culture medium to a concentration of 30 μM, and then tenfold serial dilution was used to prepare a solution diluted upto 0.3 nM (in order to reach a final DMSO concentration of 1% or less).
50 μl of a test solution of each compound was added each time to the 96-well plate in which the cells were dispensed, thus reaching a final concentration of 10 μM to 0.1 nM in 150 μl per well. The cells treated with the test solution were cultured under conditions of 37° C. and 5% carbon dioxide for 72 hours. After the 96-well plate in which the cells were cultured was acclimated to room temperature for 30 minutes, CellTiter-Glo® Luminescent Cell Assay Reagent (CTG, Promega) was dispensed at 50 μl per well. After stabilizing luminescence signals for 10 minutes, the luminescence intensity was measured with a microplate reader.
[3] abbreviates: Ba/F3 cell line overexpressing EGFR del19/T790M/C797S, 72 hours, CellTiter-Glo.

Regarding `CC(C)N1CCN(c2ccc(Nc3nc(Nc4ccccc4N(C)S(C)(=O)=O)c4cc[nH]c4n3)cc2F)CC1` [Example 9, N-(2-((2-((3-fluoro-4-(4-isopropylpiperazin-1-yl)phenyl)amino)-7H-pyrrolo[2,3-d]pyrimidine-4-yl)amino)phenyl)-N-methylmethanesulfonamide], in assay [1], the GI50 amounted to 420 nM.
Turning to `CN(c1ccccc1Nc1nc(Nc2ccc(N3CCC4(CC3)COC4)c(F)c2)nc2[nH]ccc12)S(C)(=O)=O` [Example 40, N-(2-((2-((3-fluoro-4-(2-oxa-7-azaspiro[3.5]nonan-7-yl)phenyl)amino)-7H-pyrrolo[2,3-d]pyrimidine-4-yl)amino)phenyl)-N-methylmethanesulfonamide], in assay [2] (setting [3]), the GI50 was determined as 65 nM.
In the case of `CN1C[C@@H]2CN(c3ccc(Nc4nc(Nc5ccccc5N(C)S(C)(=O)=O)c5cc[nH]c5n4)cc3F)C[C@@H]2C1` [Example 41, N-(2-((2-((3-fluoro-4-((3aR,6aS)-5-methylhexahydropyrrolo[3,4-c]pyrrole-2(1H)-yl)phenyl)amino)-7H-pyrrolo[2,3-d]pyrimidine-4-yl)amino)phenyl)-N-methylmethanesulfonamide], the GI50 in assay [2] (setting [3]) is 141 nM.
Still for that read-out and setting: then `CCN(c1ccccc1Nc1nc(Nc2ccc(N3CCN(C)CC3)c(F)c2)nc2[nH]ccc12)S(C)(=O)=O` [Example 43, N-ethyl-N-(2-((2-((3-fluoro-4-(4-methylpiperazin-1-yl)phenyl)amino)-7H-pyrrolo[2,3-d]pyrimidine-4-yl)amino)phenyl)methanesulfonamide], with 37 nM.
Still for that read-out and setting: then `CC(C)N(c1ccccc1Nc1nc(Nc2ccc(N3CCN(C)CC3)c(F)c2)nc2[nH]ccc12)S(C)(=O)=O` [Example 44, N-(2-((2-((3-fluoro-4-(4-methylpiperazin-1-yl)phenyl)amino)-7H-pyrrolo[2,3-d]pyrimidine-4-yl)amino)phenyl)-N-isopropylmethanesulfonamide], with 72 nM; and `CN1CCN(c2ccc(Nc3nc(Nc4ccccc4N(C4CC4)S(C)(=O)=O)c4cc[nH]c4n3)cc2F)CC1` [Example 45, N-cyclopropyl-N-(2-((2-((3-fluoro-4-(4-methylpiperazin-1-yl)phenyl)amino)-7H-pyrrolo[2,3-d]pyrimidine-4-yl)amino)phenyl)methanesulfonamide], with 64 nM.
Still for that read-out and setting: then `CCS(=O)(=O)N(C)c1ccccc1Nc1nc(Nc2ccc(N3CCN(C)CC3)c(F)c2)nc2[nH]ccc12` [Example 46, N-(2-((2-((3-fluoro-4-(4-methylpiperazin-1-yl)phenyl)amino)-7H-pyrrolo[2,3-d]pyrimidine-4-yl)amino)phenyl)-N-methylethanesulfonamide], with 16 nM; and `CC(C)S(=O)(=O)N(C)c1ccccc1Nc1nc(Nc2ccc(N3CCN(C)CC3)c(F)c2)nc2[nH]ccc12` [Example 47, N-(2-((2-((3-fluoro-4-(4-methylpiperazin-1-yl)phenyl)amino)-7H-pyrrolo[2,3-d]pyrimidine-4-yl)amino)phenyl)-N-methylpropan-2-sulfonamide], with 49 nM; and `CN1CCN(c2ccc(Nc3nc(Nc4ccccc4N(C)S(=O)(=O)C4CC4)c4cc[nH]c4n3)cc2F)CC1` [Example 48, N-(2-((2-((3-fluoro-4-(4-methylpiperazin-1-yl)phenyl)amino)-7H-pyrrolo[2,3-d]pyrimidine-4-yl)amino)phenyl)-N-methylcyclopropanesulfonamide], with 30 nM.
For the molecule `CCN1CCN(c2ccc(Nc3nc(Nc4ccccc4N(CC)S(C)(=O)=O)c4cc[nH]c4n3)cc2F)CC1` [Example 50, N-ethyl-N-(2-((2-((4-(4-ethylpiperazin-1-yl)-3-fluorophenyl)amino)-7H-pyrrolo[2,3-d]pyrimidine-4-yl)amino)phenyl)methanesulfonamide], the GI50 in assay [2] (setting [3]) amounted to 26 nM.
The same measure, in the same setting: then `CCN1CCN(c2ccc(Nc3nc(Nc4ccccc4N(C)S(=O)(=O)CC)c4cc[nH]c4n3)cc2F)CC1` [Example 51, N-(2-((2-((4-(4-ethylpiperazin-1-yl)-3-fluorophenyl)amino)-7H-pyrrolo[2,3-d]pyrimidine-4-yl)amino)phenyl)-N-methylethanesulfonamide], with 25 nM; and `CCN1CCN(c2ccc(Nc3nc(Nc4ccccc4N(CC)S(=O)(=O)CC)c4cc[nH]c4n3)cc2F)CC1` [Example 52], with 119 nM.
Same read-out and setting: under `CN1CCN(c2ccc(Nc3nc(Nc4ccccc4N(C)S(C)(=O)=O)c4c(Cl)c[nH]c4n3)cc2F)CC1` [Example 57, N-(2-((5-chloro-2-((3-fluoro-4-(4-methylpiperazin-1-yl)phenyl)amino)-7H-pyrrolo[2,3-d]pyrimidine-4-yl)amino)phenyl)-N-methylmethanesulfonamide] stands 7.9 nM; under `CN1CCN(c2ccc(Nc3nc(Nc4ccccc4N(C)S(C)(=O)=O)c4c(Cl)c[nH]c4n3)c(F)c2F)CC1` [Example 58, N-(2-((5-chloro-2-((2,3-difluoro-4-(4-methylpiperazin-1-yl)phenyl)amino)-7H-pyrrolo[2,3-d]pyrimidine-4-yl)amino)phenyl)-N-methylmethanesulfonamide], 93 nM; under `CN1CCN(c2ccc(Nc3nc(Nc4ccccc4N(C)S(C)(=O)=O)c4c(Cl)c[nH]c4n3)cn2)CC1` [Example 59, N-(2-((5-chloro-2-((6-(4-methylpiperazin-1-yl)pyridin-3-yl)amino)-7H-pyrrolo[2,3-d]pyrimidine-4-yl)amino)phenyl)-N-methylmethanesulfonamide], 41 nM.
Still for that read-out and setting: then `Cc1c[nH]c2nc(Nc3ccc(N4CCN(C)CC4)c(F)c3)nc(Nc3ccccc3N(C)S(C)(=O)=O)c12` [Example 60, N-(2-((2-((3-fluoro-4-(4-methylpiperazin-1-yl)phenyl)amino)-5-methyl-7H-pyrrolo[2,3-d]pyrimidine-4-yl)amino)phenyl)-N-methylmethanesulfonamide], with 15 nM.
In the case of `CN1CCN(c2ccc(Nc3nc(Nc4ccccc4N(C)S(C)(=O)=O)c4c(C#N)c[nH]c4n3)cc2F)CC1` [Example 61, N-(2-((5-cyano-2-((3-fluoro-4-(4-methylpiperazin-1-yl)phenyl)amino)-7H-pyrrolo[2,3-d]pyrimidine-4-yl)amino)phenyl)-N-methylmethanesulfonamide], the GI50 in assay [2] (setting [3]) amounted to 46 nM.
Same read-out and setting: then `CN1CCN(c2ccc(Nc3nc(Nc4ccccc4N(C)S(C)(=O)=O)c4c(F)c[nH]c4n3)cc2F)CC1` [Example 62, N-(2-((5-fluoro-2-((3-fluoro-4-(4-methylpiperazin-1-yl)phenyl)amino)-7H-pyrrolo[2,3-d]pyrimidine-4-yl)amino)phenyl)-N-methylmethanesulfonamide], with 46 nM.
Take `CCN1CCN(c2ccc(Nc3nc(Nc4ccccc4N(C)S(C)(=O)=O)c4c(F)c[nH]c4n3)cc2F)CC1` [Example 63, N-(2-((2-((4-(4-ethylpiperazin-1-yl)-3-fluorophenyl)amino)-5-fluoro-7H-pyrrolo[2,3-d]pyrimidine-4-yl)amino)phenyl)-N-methylmethanesulfonamide]: in assay [2] (setting [3]), the GI50 came out at 64 nM.
On the same count and under the same terms, under `CN1CCN(C2CCN(c3ccc(Nc4nc(Nc5ccccc5N(C)S(C)(=O)=O)c5c(F)c[nH]c5n4)cc3F)CC2)CC1` [Example 64, N-(2-((5-fluoro-2-((3-fluoro-4-(4-(4-methylpiperazin-1-yl)piperidin-1-yl)phenyl)amino)-7H-pyrrolo[2,3-d]pyrimidine-4-yl)amino)phenyl)-N-methylmethanesulfonamide] stands 28 nM; under `CN1CCN(c2ccc(Nc3nc(Nc4ccccc4N(C)S(C)(=O)=O)c4nc[nH]c4n3)cc2F)CC1` [Example 66, N-(2-((2-((3-fluoro-4-(4-methylpiperazin-1-yl)phenyl)amino)-9H-purine-6-yl)amino)phenyl)-N-methylmethanesulfonamide], 63 nM; under `CN1CCN(c2ccc(Nc3nc(Nc4ccccc4N(C)S(C)(=O)=O)c4cn[nH]c4n3)cc2F)CC1` [Example 67, N-(2-((6-((3-fluoro-4-(4-methylpiperazin-1-yl)phenyl)amino)-1H-pyrazolo[3,4-d]pyrimidine-4-yl)amino)phenyl)-N-methylmethanesulfonamide], 254 nM.
In the case of `C=CC(=O)Nc1cc(Nc2nccc(-c3cn(C)c4ccccc34)n2)c(OC)cc1N(C)CCN(C)C` [Osimertinib, reference compound], in assay [2], the “proliferation inhibitory effect in Ba/F3 cell line (in words)” value was “did not show proliferation inhibitory activity; also recorded: extremely insignificant inhibitory effect” and the GI50 came out at 1120 nM. In addition, the GI50 in assay [2] (Ba/F3 EGFR-Del19/T790M/C797S, 72 h) was over 1000 nM.
